According to patent US20220304997A1, “REBAMIPIDE FOR USE IN PROPHYLAXIS AND TREATMENT OF CANCER” (SQUARE POWER LTD., priority 2019, published 2022):

System: Male CD-1 mice
Experiment: DSS model combined with PhIP treatment (increased intestinal permeability, colitis and colon tumors)
Format: in vivo
From the text: To study the effect of rebamipide on increased intestinal permeability, colonic inflammation and cancer development, a DSS model combined with PhIP treatment was employed. Male CD-1 mice, divided into three groups, designated A to C, were used in the study. […] Subsequently, all animals were given inflammatory insult using 2% dextran sodium sulfate (DSS) in drinking water for 7 days, followed by 2-4 weeks of recovery period, during which mice were given untreated water. This cycle was repeated up to four times to induce increased intestinal permeability leading to severe colitis with loss of body weight and bloody diarrhea. Subsequently, majority of animals developed multiple colon tumors. Treatment with DSS (dextran sulfate sodium) induces increased intestinal permeability in mice by binding to medium-chain-length fatty acids present in the colon leading to development of inflammation and colitis. Besides that, the DSS administration leads to a long-term development of dysplasia and even colon cancer in some of the mice treated. PhIP treatment accelerates this process and further increases the incidence of colonic tumors. Another advantage of including PhIP in the protocol is that it allows reduction of the DSS dose in mice, and decreases the mortality from DSS-associated acute colitis. The carcinogenic process of the DSS/PhIP system has a pathological progression from normal intestinal crypts to the formation of foci harboring aberrant crypts with crypt fission and finally to the emergence of microadenomas. These steps recapitulate the sequence of colorectal cancer formation in humans from increased intestinal permeability and inflammation through dysplasia to carcinoma. Rebamipide treatment started four weeks prior to carcinogen administration and continued throughout the study. Groups A and B received rebamipide 50 mg/kg/day and 350 mg/kg/day, respectively. Rebamipide was applied within the standard daily feed or by gavage if needed. The treatment lasted for 20 weeks. […] [table] The observed parameters were as follows: • Number and size of tumors • Histological evaluation of the tumors • Weight loss • Colitis severity assessment • Gut permeability • Cytokines and related markers (IL-6, IL-10, IL-1b, TNFα, iNOS, IL-23p19, MCP 1, MIP 2, CXCL1) • Cell-cell adhesion proteins (Claudin 1, β catenin) • Expression of target genes

[1] = PhIP/DSS-treated mice, in comparison to untreated animals
[2] = groups A and B, rebamipide 50 mg/kg/day and 350 mg/kg/day, 20 weeks, vs untreated control group C, preliminary results

O=C(NC(Cc1cc(=O)[nH]c2ccccc12)C(=O)O)c1ccc(Cl)cc1 (stereo not drawn) [rebamipide, 2-[(4-chlorobenzoyl)amino]-3-(2-oxo-1H-quinolin-4-yl)propanoic acid]
intestinal inflammation [1]: suppresses intestinal inflammation
onset of the symptoms and markers corresponding to colon cancer [1]: preventing or at least delaying the onset
permeability of the gastrointestinal mucosa [1]: decrease in permeability
recovery from the DSS treatment (groups A and B, rebamipide 50 mg/kg/day and 350 mg/kg/day in feed or by gavage, 20 weeks, vs untreated control group C, preliminary results): recovered faster
incidence of tumors at the end of the study [2]: lower incidence
size of tumors at the end of the study [2]: lower incidence and size of tumors
